Results on four molecules are retold here after ChEMBL document CHEMBL3639333, “Compounds, pharmaceutical compositions and uses thereof” (2014).

Each structure is given as a SMILES string.

Sequence of Acetyl-CoA carboxylase 2 (O00763 whole entry): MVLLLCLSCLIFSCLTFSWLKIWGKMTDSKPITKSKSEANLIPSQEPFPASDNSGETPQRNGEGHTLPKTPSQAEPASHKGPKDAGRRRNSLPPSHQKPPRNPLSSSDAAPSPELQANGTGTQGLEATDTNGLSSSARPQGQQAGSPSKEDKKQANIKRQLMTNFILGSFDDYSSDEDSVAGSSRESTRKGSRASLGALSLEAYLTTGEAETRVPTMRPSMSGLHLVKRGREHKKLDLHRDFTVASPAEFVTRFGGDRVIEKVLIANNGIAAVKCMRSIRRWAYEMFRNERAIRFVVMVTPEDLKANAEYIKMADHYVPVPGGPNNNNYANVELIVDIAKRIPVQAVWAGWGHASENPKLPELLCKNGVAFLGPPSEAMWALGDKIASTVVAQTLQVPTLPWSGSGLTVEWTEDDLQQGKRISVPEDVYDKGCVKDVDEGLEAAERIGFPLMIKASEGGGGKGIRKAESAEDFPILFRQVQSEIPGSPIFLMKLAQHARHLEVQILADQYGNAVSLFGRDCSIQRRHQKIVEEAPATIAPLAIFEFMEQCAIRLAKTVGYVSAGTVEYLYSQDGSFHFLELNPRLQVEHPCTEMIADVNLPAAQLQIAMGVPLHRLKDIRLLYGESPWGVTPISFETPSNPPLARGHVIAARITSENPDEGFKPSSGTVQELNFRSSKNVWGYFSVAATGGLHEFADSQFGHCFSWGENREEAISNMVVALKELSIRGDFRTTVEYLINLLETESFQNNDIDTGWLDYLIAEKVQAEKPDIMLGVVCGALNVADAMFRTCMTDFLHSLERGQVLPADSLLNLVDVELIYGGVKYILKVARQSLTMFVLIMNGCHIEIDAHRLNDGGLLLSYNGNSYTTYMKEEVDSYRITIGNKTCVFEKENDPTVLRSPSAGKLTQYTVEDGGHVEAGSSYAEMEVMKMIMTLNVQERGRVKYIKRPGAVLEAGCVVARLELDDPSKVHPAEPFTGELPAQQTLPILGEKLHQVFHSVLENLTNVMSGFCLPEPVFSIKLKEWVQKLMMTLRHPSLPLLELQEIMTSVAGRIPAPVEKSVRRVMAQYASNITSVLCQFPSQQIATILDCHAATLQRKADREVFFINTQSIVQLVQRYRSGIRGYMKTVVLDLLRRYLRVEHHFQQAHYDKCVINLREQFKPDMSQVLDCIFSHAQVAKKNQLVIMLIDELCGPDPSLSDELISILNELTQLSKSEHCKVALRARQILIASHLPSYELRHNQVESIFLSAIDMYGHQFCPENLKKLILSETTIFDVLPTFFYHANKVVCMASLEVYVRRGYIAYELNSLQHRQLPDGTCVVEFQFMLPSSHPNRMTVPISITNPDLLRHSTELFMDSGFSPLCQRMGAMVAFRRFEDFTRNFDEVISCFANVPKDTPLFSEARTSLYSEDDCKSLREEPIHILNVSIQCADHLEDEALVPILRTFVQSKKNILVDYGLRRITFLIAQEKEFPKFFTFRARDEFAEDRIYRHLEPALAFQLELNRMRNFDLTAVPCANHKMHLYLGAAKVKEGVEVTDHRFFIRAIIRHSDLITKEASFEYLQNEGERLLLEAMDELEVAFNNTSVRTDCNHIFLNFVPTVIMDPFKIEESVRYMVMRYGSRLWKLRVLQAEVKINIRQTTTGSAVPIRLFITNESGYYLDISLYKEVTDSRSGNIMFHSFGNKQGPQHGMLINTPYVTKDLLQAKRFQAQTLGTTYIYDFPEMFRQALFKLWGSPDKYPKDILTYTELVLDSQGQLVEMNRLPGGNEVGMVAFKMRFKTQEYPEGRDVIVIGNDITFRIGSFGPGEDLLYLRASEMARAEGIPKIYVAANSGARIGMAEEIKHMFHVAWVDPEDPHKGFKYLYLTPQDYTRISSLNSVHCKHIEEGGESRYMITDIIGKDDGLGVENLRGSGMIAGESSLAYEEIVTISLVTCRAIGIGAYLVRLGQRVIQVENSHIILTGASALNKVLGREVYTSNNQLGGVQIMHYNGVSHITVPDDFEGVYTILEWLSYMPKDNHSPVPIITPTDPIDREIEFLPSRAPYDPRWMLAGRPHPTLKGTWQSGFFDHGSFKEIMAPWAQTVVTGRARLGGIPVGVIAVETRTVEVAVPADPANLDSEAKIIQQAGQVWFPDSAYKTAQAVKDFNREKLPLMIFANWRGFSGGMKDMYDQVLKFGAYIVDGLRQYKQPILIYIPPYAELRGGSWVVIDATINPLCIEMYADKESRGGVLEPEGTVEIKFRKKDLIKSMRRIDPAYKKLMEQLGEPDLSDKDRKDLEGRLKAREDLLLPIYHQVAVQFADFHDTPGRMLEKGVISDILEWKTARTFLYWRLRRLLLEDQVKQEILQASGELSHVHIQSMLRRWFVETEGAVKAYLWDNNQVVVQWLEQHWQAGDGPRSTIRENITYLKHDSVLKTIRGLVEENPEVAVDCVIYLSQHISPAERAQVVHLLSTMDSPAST

The experiment addresses Acetyl-CoA carboxylase 2 (Homo sapiens, UniProt O00763). The experiment can be described thus: Spectrophotometric 384 Well Assay: Malonyl CoA formation by acetyl CoA carboxylases is stoichometrically linked to the consumption of ATP. ACC2 activity is measured in a NADH-linked kinetic method measuring ADP generated during the ACC reaction using a coupled lactate dehydrogenase/pyruvate kinase reaction.For biological testing, a human ACC2 construct which lacks the 128 amino acids at the N-terminus for increased solubility (nt 385-6966 in Genbank entry AJ575592) is cloned. The protein is then expressed in insect cells using a baculoviral expression system. Protein purification is performed by anion exchange.All compounds are dissolved in dimethyl sulfoxide (DMSO) to a concentration of 10 mM.Assay reactions are then carried out in 384-well plates, with hACC2 in an appropriate dilution and at final assay concentrations (f.c.) of 100 mM Tris (pH 7.5), 10 mM trisodium citrate, 25 mM KHCO3, 10 mM MgCl2, 0.5 mg/mL BSA, 3.75 mM reduced L-glutathione, 15 U/mL lactate dehydrogenase, 0.5 mM phosphoenolpyruvate.
The molecule `CCOc1ccc(C#Cc2ccc(CC(C)NC(=O)CC3CC3)cc2)cc1` (centres undefined) came in with an IC50 of 0.79 µM. On to `CC(=O)NC(C)Cc1ccc(C#Cc2ccc(C(=O)NCC(C)C)cc2)cc1` (centres undefined), for which 4.2 µM corresponded to half-maximal inhibition (IC50). In the case of `CC(=O)NC(C)Cc1ccc(C#Cc2cccc(C(=O)N3CCC3)c2)cc1` (centres undefined), the IC50 worked out at 2.1 µM. `CC(=O)NC(C)Cc1ccc(C#Cc2ccnc(NCC(F)F)n2)cc1` (centres undefined) returned a half-maximal inhibitory concentration (IC50) of 9.9 µM. Compared with the last molecule, the IC50 is about 4.7-fold higher.
